One test has as its target T1, photosystem II (PS II) (Spinacia oleracea, UniProt P69560).
T1 construct: the chloroplasts were osmotically ruptured and the thylakoid membranes were then obtained by centrifugation; from tissue; host or cells: spinach leaves (thylakoid membrane preparation)
Nature of the test: Activity determination of photosystem II (PS II) in thylakoid membranes, DCPIP reduction. The class given is biochemical. The settings on record: spinach thylakoid membranes, DCPIP 120 μM, 10 min at 22° C. with illumination. How it is done: Measurement of PS II Activity in Thylakoid Membranes
1. Preparation of the Thylakoid Membranes
Cooled fresh spinach leaves were comminuted and homogenized in 50 mM phosphate buffer, pH 6.8, 10 mM KCl, 0.34 M sucrose (sucrose buffer) (mixer, 1 g of plant material/ml). The homogenate was subsequently filtered through 4 layers of Miracloth and the chloroplasts were obtained by centrifugation: • 10 minutes (min) of centrifugation at 4400×g (4° C.). • The sediment was suspended in 25 ml of sucrose buffer and centrifuged for another 10 min at 4400×g (4° C.). • The sediment was then suspended in 40 ml of 50 mM phosphate buffer, pH 6.8, 10 mM KCl, without sucrose. • In this step, the chloroplasts were osmotically ruptured and the thylakoid membranes were then obtained by centrifugation (10 min, 4400×g, 4° C.). The membrane sediment was finally suspended in about 20 ml of 50 mM phosphate buffer, pH 6.8, 10 mM KCl. • After protein determination and activity determination, the membrane suspension was aliquoted and frozen in liquid nitrogen. The aliquots were stored at −80° C. Under these conditions, the photosystem II preparation is storage-stable for at least three months.
2. Activity Determination of the Photosystem II (PS II)
The electron transfer from PS II to an artificial electronic captor, 2,6-dichlorophenol-indophenol (DCPIP), is measured under the action of light. The concentration of the blue oxidized form of DCPIP can be determined spectraphotometrically at the wavelength l=595 nm. The enzyme-catalyzed reduction of DCPIP results in a colourless leuco form and thus to a decrease of absorption at 595 nm in the reaction batch, which is measured as a function of time.
The activity determination was carried out in microtiter plates (96 wells) in a reaction volume of 200 μl. 155 μl of dilute membrane suspension in 50 mM phosphate buffer, pH 6.8, 10 mM KCl were initially charged. Depending on the activity of the PS II preparation, the dilution was adjusted such that measurement of the decrease in absorption (λ=595 nm) was linear for at least 10 min.
Typical dilution series of the test compounds comprised 10 concentration steps in the range between 10^−9and 10^−5 M.
On each microtiter plate, a known PS II inhibitor, e.g. metribuzin, was used as standard for assessing the quality of the PS II test.
The reaction was initiated by addition of 40 μl DCPIP solution (600 μM in distilled water); the final concentration of DCPIP was 120 μM.
Absorption was measured over a period of 10 min at 22° C. and with illumination. For calculating the active compound concentration at which 50% of the enzyme activity is inhibited (IC50), the relative enzymatic activity (in %) was plotted as a function of the logarithm of the active compound concentration.

Another test deals with Setaria viridis. Nature of the test: Post-emergence herbicidal action, SETVI. The format is in vivo. To be noted: one-leaf stage, application rate 1280 g/ha, scored visually after about 3 weeks. The method, then:
(§1) Post-Emergence Herbicidal Activity Seeds of mono- and dicotyledonous weed plants and crop plants were placed in sandy loam in wood fibre pots, covered with soil and then cultivated in a greenhouse under good growth conditions. Two to 3 weeks after sowing, the test plants were treated at the one-leaf stage, with the formulated compounds of the general formula (I) according to the invention being sprayed as an aqueous suspension or emulsion at an application rate of 600 l of water/ha (converted) with addition of 0.2% wetting agent, onto the green parts of the plants. After the test plants had been left to stand in the greenhouse for about 3 weeks under optimum growth conditions, the activity of the preparations was scored visually in percent in comparison to untreated controls. For example, 100% activity=the plants have died, 50% herbicidal activity or damage=plants reduced to 50% or plant material reduced by 50%, 0% activity=like control plants. […] Here, the herbicidal action of the compounds of the general formula (I) according to the invention was examined for the following harmful plants: SETVI=Setaria viridis The respective herbicidal action was in each case determined at the same point in time after application of the formulation in question, i.e. damage of the harmful plant in question in %. […]

A further test concerns Ipomoea purpurea. Nature of the test: Post-emergence herbicidal action, PHBPU. The class given is in vivo. To be noted: one-leaf stage, application rate 1280 g/ha, scored visually after about 3 weeks. How it is done:
as §1, with “PHBPU=Ipomoea purpurea” for “SETVI=Setaria viridis”

In test [1] the test system is Polygonum convolvulus (=Fallopia convolvulus). The test is described as follows: Post-emergence herbicidal action, POLCO. The format is in vivo. To be noted: one-leaf stage, application rate 1280 g/ha, scored visually after about 3 weeks. The method, then:
as §1, with “POLCO=Polygonum convolvulus (=Fallopia convolvulus)” for “SETVI=Setaria viridis”

The next test has as its system Viola tricolor. Nature of the test: Post-emergence herbicidal action, VIOTR. The format is in vivo. The settings on record: one-leaf stage, application rate 1280 g/ha, scored visually after about 3 weeks. How it is done: as §1, with “VIOTR=Viola tricolor” for “SETVI=Setaria viridis”

The values below come from US20190166840A1, “SUBSTITUTED PYRAZOLINYL DERIVATIVES, PROCESSES FOR THEIR PREPARATION AND THEIR USE AS HERBICIDES AND/OR PLANT GROWTH REGULATORS” (BAYER CROPSCIENCE AKTIENGESELLSCHAFT, priority 2016, published 2019).

Take `CC1=C(C)C(O)N(C2=NN(Cc3ccccc3)C(C)(C)C2)C1=O` (stereo not drawn) [I.2-217]: on photosystem II (PS II), the pI50 is on record as 5.4. On to `CC1=C(C)C(O)N(C2=NN(c3ccccc3)C(C)C2)C1=O` (stereo not drawn) [I.2-321], for which the IC50 at photosystem II (PS II) (read-out: pI50 (converted)) was 7.94 µM. Regarding `CC1=C(C)C(O)N(C2=NN(c3ccccn3)C(C)C2)C1=O` (stereo not drawn) [I.2-432], the “Post-emergence herbicidal action SETVI, damage of the harmful plant” value in the test with Setaria viridis turned out to be 80%. Moreover, the “Post-emergence herbicidal action PHBPU, damage of the harmful plant” value with Ipomoea purpurea was found to be 0%. In test [1], the “Post-emergence herbicidal action POLCO, damage of the harmful plant” value was 0%. For the same compound, the “Post-emergence herbicidal action VIOTR, damage of the harmful plant” value in the test with Viola tricolor came to 80%. In turn, `CC1=C(Cl)C(=O)N(C2=NN(c3ccccc3)C(C)C2)C1O` (stereo not drawn) [I.3-321] displayed a pI50 on photosystem II (PS II) of 5.4. On photosystem II (PS II), `CC1=C(Cl)C(=O)N(C2=NN(C)C(c3ccc(Cl)cc3)C2)C1O` (stereo not drawn) [I.3-1351] displayed a pI50 of 5.5.

In turn, `CC1=C(Br)C(=O)N(C2=NN(c3ccccc3)CC2)C1O` (stereo not drawn) [I.8-621] showed a pI50 on photosystem II (PS II) of 5.3. Besides, the “Post-emergence herbicidal action SETVI, damage of the harmful plant” value in the test with Setaria viridis is 60%. In the test with Ipomoea purpurea, the “Post-emergence herbicidal action PHBPU, damage of the harmful plant” value was determined as 90%. For the same compound, in test [1], the “Post-emergence herbicidal action POLCO, damage of the harmful plant” value is listed as 90%. In addition, in the test on Viola tricolor, the “Post-emergence herbicidal action VIOTR, damage of the harmful plant” value amounted to 80%. `CC1=C(Br)C(=O)N(C2=NN(C)C(c3ccccc3)C2)C1O` (stereo not drawn) [I.8-1126]: the pI50 on photosystem II (PS II) is 5.1. The same measure, in the same setting: in the case of `CC1=C(Br)C(=O)N(C2=NN(C)C(c3ccc(Cl)cc3)C2)C1O` (stereo not drawn) [I.8-1351] it was 5.7.
